The record followed here is USRE46630E1, “Substituted 4-pyridones and their use as inhibitors of neutrophil elastase activity” (Boehringer Ingelheim International GmbH, priority 2012, dated 2017).

This assay concerns the target T1, Human neutrophil elastase (Homo sapiens, UniProt P08246).
T1 construct: purchased Calbiochem 324681
T1 sequence (P08246 30-267): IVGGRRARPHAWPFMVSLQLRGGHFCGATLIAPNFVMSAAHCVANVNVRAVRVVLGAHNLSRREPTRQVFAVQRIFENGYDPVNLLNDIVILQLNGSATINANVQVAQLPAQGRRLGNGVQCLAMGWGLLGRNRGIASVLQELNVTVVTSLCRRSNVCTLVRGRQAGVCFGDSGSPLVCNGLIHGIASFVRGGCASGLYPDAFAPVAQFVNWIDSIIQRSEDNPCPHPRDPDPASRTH
The assay is described as follows: Human Neutrophil Elastase Assay. The settings on record: Neutrophil Elastase assay; substrate MeOSuc-Ala-Ala-Pro-Val-AMC 250 μM; 15 min preincubation, 60 min incubation at room temperature; pH 7.5. Type of assay: biochemical. How it is done:
Human Neutrophil Elastase Assay
All other materials were of the highest grade commercially available.
The following buffers were used: Compound buffer: 100 mM Tris, 500 mM NaCl, adjusted to pH 7.5; Assay buffer: 100 mM Tris, 500 mM NaCl, adjusted to pH 7.5, containing 0.01% BSA.
Assay conditions: Test compounds were prediluted in DMSO and subsequently in compound buffer (5% DMSO final). […] After inactivation of the enzyme, fluorescence intensities were measured at 380 nm excitation and 460 nm emission wavelengths.
Each plate contains wells with a high value control (DMSO+enzyme+substrate) and wells with a low value control (DMSO+inactivated enzyme+substrate). […] Means of low values were taken as 0%, means of high values as 100%.
A word on the IC50: it is the concentration at which inhibition is half-maximal. In turn, `CNC(=O)c1cn(C(C)c2ccc(C#N)cc2)c(C)c(-c2ccc(F)c(C(F)F)c2)c1=O` (centres unmarked) [Example 28] gave an IC50 of 13.3 nM.
The value for `Cc1c(-c2cccc(C(F)F)c2)c(=O)c(C(N)=O)cn1C(C)c1ccc(C#N)cc1` (centres unmarked) [Example 8.22] was 21.6 nM; that for `Cc1c(-c2cccc(C(F)(F)F)c2)c(=O)c(C(=O)NCCCO)cn1C(C)c1ccc(C#N)cc1` (centres unmarked) [Example 7.4] was 1.8 nM.
`Cc1c(-c2ccnc(C(F)(F)F)c2)c(=O)c(C(=O)NCc2ccc(S(C)(=O)=O)cc2)cn1Cc1ccc(C#N)cc1F` [Example 5.3] came in with an IC50 of 1.4 nM.
On to `CNC(=O)c1cn(Cc2ccc(C#N)nc2)c(C)c(-c2cccc(C(F)(F)F)c2)c1=O` [Example 3.2], for which the IC50 is 53.7 nM.
In turn, `Cc1c(-c2cccc(C(F)(F)F)c2)c(=O)c(C(=O)NCCCO)cn1Cc1ccc(C#N)cc1S(C)(=O)=O` [Example 23] gave an IC50 of 4.4 nM.
The value for `Cc1c(-c2cccc(C(F)F)c2)c(=O)c(C(=O)NCCCS(C)(=O)=O)cn1C(C)c1ccc(C#N)cc1` (centres unmarked) [Example 8.3] was 1.3 nM.
The value for `Cc1c(-c2cccc(C(F)(F)F)c2)c(=O)c(C(=O)NCc2cnn(C)c2)cn1Cc1ccc(C#N)cc1` [Example 1.26] was 13.2 nM; that for `CCOCCNC(=O)c1cn(Cc2ccc(C#N)cc2)c(C)c(-c2cccc(C(F)(F)F)c2)c1=O` [Example 1.24] was 10 nM; that for `Cc1c(-c2cccc(C(F)(F)F)c2)c(=O)c(C(=O)NC2CCNC2=O)cn1C(C)c1ccc(C#N)cn1` (centres unmarked) [Example 47.2] was 7.3 nM.
The same measure for `Cc1c(-c2cccc(C(F)F)c2)c(=O)c(C(=O)NCc2ccc(S(C)(=O)=O)cc2)cn1Cc1ccc(C#N)cc1` [Example 6.10]: < 1 nM; for `COCCNC(=O)c1cn(C(C)c2ccc(C#N)cc2)c(C)c(-c2cccc(C(F)F)c2)c1=O` (centres unmarked) [Example 8.26]: 1.8 nM; for `Cc1c(-c2cccc(C(F)(F)F)c2)c(=O)c(C(=O)NC2CCOCC2)cn1Cc1ccc(C#N)cc1` [Example 1.29]: 31.6 nM.
Molecule `Cc1c(-c2cccc(C(F)(F)F)c2)c(=O)c(C(=O)NCCCS(C)(=O)=O)cn1C(C)c1ccc(C#N)cc1` (centres unmarked) [Example 7.3] showed an IC50 of 1.3 nM.
The same measure for `Cc1c(-c2ccnc(C(F)(F)F)c2)c(=O)c(C(=O)NCC2CC2)cn1C(C)c1ccc(C#N)cc1` (centres unmarked) [Example 9.20]: 10.9 nM.
The value for `Cc1c(-c2cccc(C(F)(F)F)c2)c(=O)c(C(=O)NCCc2cccnc2)cn1Cc1ccc(C#N)cc1` [Example 1.44] was 7.9 nM.
The value for `Cc1c(-c2cccc(C(F)(F)F)c2)c(=O)c(C(=O)NCC2CC[N+](C)(C)CC2)cn1Cc1ccc(C#N)cc1` [Example 12.3, 4-({[1-(4-Cyano-benzyl)-6-methyl-4-oxo-5-(3-trifluoromethyl-phenyl)-1,4-dihydro-pyridine-3-carbonyl]-amino}-methyl)-1,1-dimethyl-piperidinium chloride] was 59.7 nM.
Take `Cc1c(-c2ccnc(C(F)(F)F)c2)c(=O)c(C(=O)NCc2cnn(C)c2)cn1C(C)c1ccc(C#N)cc1` (centres unmarked) [Example 9.19]: 8.9 nM corresponded to half-maximal inhibition (IC50).
The value for `Cc1c(-c2ccnc(C(F)(F)F)c2)c(=O)c(C(=O)NC2CCCCC2O)cn1C(C)c1ccc(C#N)cc1` (centres unmarked) [Example 9.29] was 22.3 nM.
The value for `Cc1c(-c2ccnc(C(F)(F)F)c2)c(=O)c(C(=O)NCC2CC(O)C2)cn1C(C)c1ccc(C#N)cc1` (centres unmarked) [Example 9.47] was 14.9 nM; that for `Cc1c(-c2ccnc(C(F)(F)F)c2)c(=O)c(C(=O)NCC(F)F)cn1C(C)c1ccc(C#N)cc1` (centres unmarked) [Example 9.22] was 7.3 nM; that for `CCCNC(=O)c1cn(C(C)c2ccc(C#N)cc2)c(C)c(-c2ccnc(C(F)(F)F)c2)c1=O` (centres unmarked) [Example 9.14] was 7 nM.
As to `Cc1c(-c2cccc(C(F)F)c2)c(=O)c(C(=O)NCCCO)cn1C(C)c1ccc(C#N)cc1` (centres unmarked) [Example 8.4], the IC50 was 1.8 nM.
The same measure for `CNC(=O)c1cn(Cc2ccc(C#N)cc2F)c(C)c(-c2cccc(C(F)F)c2)c1=O` [Example 32]: 11.8 nM; for `Cc1c(-c2cccc(C(F)(F)F)c2)c(=O)c(C(=O)N[C@H]2CCNC2=O)cn1Cc1ccc(C#N)cc1` [Example 1.58]: 8.1 nM; for `Cc1noc(CNC(=O)c2cn(Cc3ccc(C#N)cc3S(C)(=O)=O)c(C)c(-c3cccc(C(F)(F)F)c3)c2=O)n1` [Example 24]: 4.8 nM.
Molecule `Cc1c(-c2ccnc(C(F)(F)F)c2)c(=O)c(C(=O)NCC2CCOCC2)cn1C(C)c1ccc(C#N)cc1` (centres unmarked) [Example 9.28] yielded an IC50 of 12.8 nM.
As to `Cc1c(-c2cccc(C(F)(F)F)c2)c(=O)c(C(=O)NCC2CC2)cn1C(C)c1ccc(C#N)cn1` (centres unmarked) [Example 47.5], half-maximal inhibition (IC50) required 16.7 nM.
The molecule `Cc1c(-c2cccc(C(F)(F)F)c2)c(=O)c(C(=O)NCCCN(C)C)cn1C(C)c1ccc(C#N)cc1` (centres unmarked) [Example 7.1] had an IC50 of 4.1 nM.
The same measure for `Cc1c(-c2cccc(C(F)F)c2)c(=O)c(C(=O)NCc2cnn(C)c2)cn1C(C)c1ccc(C#N)cc1` (centres unmarked) [Example 8.14]: 3.6 nM; for `Cc1c(-c2cccc(C(F)F)c2)c(=O)c(C(=O)NCc2ccc(S(C)(=O)=O)cc2)cn1Cc1ccc(C#N)c(F)c1` [Example 39, 1-(4-Cyano-3-fluoro-benzyl)-5-(3-difluoromethyl-phenyl)-6-methyl-4-oxo-1,4-dihydro-pyridine-3-carboxylic acid 4-methanesulfonyl-benzylamide]: < 1 nM; for `Cc1c(-c2cncc(Cl)c2)c(=O)c(C(=O)NCc2ccc(S(C)(=O)=O)cc2)cn1Cc1ccc(C#N)cc1` [Example 6.9]: 3.8 nM.
The same measure for `Cc1c(-c2cccc(C(F)(F)F)c2)c(=O)c(C(=O)NCC2CCCO2)cn1Cc1ccc(C#N)cc1` (centres unmarked) [Example 1.47]: 22 nM; for `CNC(=O)c1cn(C(C)c2ccc(C#N)cc2)c(C)c(-c2ccnc(C(F)(F)F)c2)c1=O` (single isomer, unassigned) [Example 9B]: 1510 nM; for `Cc1c(-c2cccc(C(F)(F)F)c2)c(=O)c(C(=O)NCc2ccc([S+](C)[O-])cc2)cn1Cc1ccc(C#N)cc1` (centres unmarked) [Example 1.10]: 1.1 nM.
The value for `Cc1c(-c2cccc(C(F)(F)F)c2)c(=O)c(C(=O)NC2CCS(=O)(=O)C2)cn1Cc1ccc(C#N)cc1` (centres unmarked) [Example 1.64] was 17.2 nM; that for `Cc1c(-c2ccnc(C(F)(F)F)c2)c(=O)c(C(=O)NC2CCN(C)C2=O)cn1C(C)c1ccc(C#N)cc1` (centres unmarked) [Example 9.12] was 4.6 nM; that for `COc1cc(C#N)ccc1Cn1cc(C(=O)NCc2ccc(S(C)(=O)=O)cn2)c(=O)c(-c2cccc(C(F)(F)F)c2)c1C` [Example 4.7] was < 1 nM.
In turn, `Cc1c(-c2ccnc(C(F)(F)F)c2)c(=O)c(C(=O)NCC2COC2)cn1C(C)c1ccc(C#N)cc1` (centres unmarked) [Example 9.15] yielded an IC50 of 5.7 nM.
The value for `Cc1c(-c2cccc(C(F)(F)F)c2)c(=O)c(C(=O)NC(CO)CO)cn1Cc1ccc(C#N)cc1` [Example 1.19] was 48.1 nM; that for `CCCNC(=O)c1cn(C(C)c2ccc(C#N)cc2)c(C)c(-c2cccc(C(F)F)c2)c1=O` (centres unmarked) [Example 8.27] was 3 nM; that for `CNC(=O)c1cn(C(C)c2ccc(C#N)cc2)c(C)c(-c2cccc(C)c2)c1=O` (centres unmarked) [Example 29] was 14.4 nM.
The same measure for `Cc1c(-c2cccc(C(F)(F)F)c2)c(=O)c(C(=O)NCCS(C)(=O)=O)cn1C(C)c1ccc(C#N)cc1` (centres unmarked) [Example 7.6]: 1.2 nM; for `Cc1c(-c2cncc(C(F)(F)F)c2)c(=O)c(C(=O)NCc2ccc(S(C)(=O)=O)cc2)cn1Cc1ccc(C#N)cc1` [Example 6.13]: 2.5 nM; for `Cc1c(-c2cccc(C(F)F)c2)c(=O)c(C(=O)NC2CCN(C)C2=O)cn1C(C)c1ccc(C#N)cc1` (centres unmarked) [Example 8.10]: 1.6 nM.
Molecule `Cc1c(-c2cccc(C(F)(F)F)c2)c(=O)c(C(=O)NCc2ccc(S(C)(=O)=O)cc2)cn1Cc1ccc(F)cc1` [Example 2.2] displayed an IC50 of 1.9 nM.
The value for `C=CCNC(=O)c1cn(C(C)c2ccc(C#N)cc2)c(C)c(-c2ccnc(C(F)(F)F)c2)c1=O` (centres unmarked) [Example 9.51] was 6 nM; that for `Cc1c(-c2cccc(C(F)F)c2)c(=O)c(C(=O)NCc2ccc(S(C)(=O)=O)cc2)cn1Cc1ccc(C#N)cn1` [Example 40, 1-(5-Cyano-pyridin-2-ylmethyl)-5-(3-difluoromethyl-phenyl)-6-methyl-4-oxo-1,4-dihydro-pyridine-3-carboxylic acid 4-methanesulfonyl-benzylamide] was < 1 nM.
The value for `Cc1c(-c2cccc(C(F)(F)F)c2)c(=O)c(C(=O)NC2CCCNC2=O)cn1Cc1ccc(C#N)cc1` (centres unmarked) [Example 1.55] was 4.9 nM; that for `Cc1c(-c2cccc(C(F)(F)F)c2)c(=O)c(C(=O)NC2COC2)cn1C(C)c1ccc(C#N)cc1` (centres unmarked) [Example 7.19] was 4.1 nM; that for `Cc1c(-c2ccnc(C(F)(F)F)c2)c(=O)c(C(=O)NC2CCOCC2)cn1C(C)c1ccc(C#N)cc1` (centres unmarked) [Example 9.25] was 11.4 nM.
The same measure for `Cc1c(-c2cccc(C(F)(F)F)c2)c(=O)c(C(=O)NCCS(C)(=O)=O)cn1Cc1ccc(C#N)cc1` [Example 1.66]: 6.2 nM; for `Cc1c(-c2cccc(C(F)(F)F)c2)c(=O)c(C(=O)NCC2CCN(C)CC2)cn1Cc1ccc(C#N)cc1` [Example 1.2]: 48.3 nM.
